Results as given in US4062948A, “Dihydromocimycin antibiotics” (Gist-Brocades N.V., priority 1970, dated 1977).
In brackets after ≈: the same amount, converted by molar mass. Entries after “also recorded” stand apart in the source; their conditions may differ.

Experiments:
[1] = test system: microorganism causing Treponema dysentery; experiment: pigs infected with Treponema dysentery (Example VI); assay type: in vivo
Source text: Twenty pigs, 3 months old, were infected with the microorganism causing Treponema dysentery by administering to them feed mixed with a homogenous mixture of contents of the intestines and intestinal mucous membranes of two animals suffereing from the disease. The infected pigs were divided into four groups of five animals each and the animals were fed with the feed as a slurry diluted 1:1 with water for 1 week. The total amount of feed per animal was 1.2 kg each day and was given in two portions.
After 5 days, the first symptoms of the disease were observed from the thin faeces and confirmed by a microbiological investigation of the faeces and […] a week, the animals were treated as follows:
group 2: 100 ppm of tylosin were added to the feed;
group 3: 25ppm of dihydromocimycin were added to the feed; and
group 4: 50 ppm of dihydromocimycin were added to the feed.
The antibiotic-enriched feed was administered for a week. After that week, feed without any antibiotic was given again. Recovery from the infection was observed from the weights of the animals and from inspection samples of the faeces, macroscopically from their consistencies, and microscopically by means of a specific immuno-fluoroescence technique. During the test, one animal of each of groups 1, 3 and 4 died.
The results are shown in the following Table wherein the weights indicated are the averages at that time of the still living animals. The consistency of the faeces is indicated as follows:
+ means thin liquid; ± means thick liquid; - means normal. The results of the immuno-fluorescence technique are indicated quantitatively by indicating the number of Treponemas in the visual field: 5 means very crowded; 4 means many; 3 means about 10 Treponemas; 2 means 1 or 2 Treponemas, 1 means more visual fields necessary to find one Treponema, and - means negative.

[2] = test system: same microorganisms as mocimycin; experiment: in vitro antimicrobial activity, comparison of the two antibiotics; assay type: cell-based
[3] = test system: organisms of the Mycoplasma genus (pleuro-pneumonia like organisms); experiment: in vitro activity against Mycoplasma genus; assay type: cell-based
[4] = growth promotion in slaughter chickens (Example II); assay type: in vivo; details: feed additive
Source text: Slaughter chickens are given mocimycin in the form of the sodium salt obtained in Example 1, in a mixture with component of the feed (wheat flour), the amount of antibiotic in the feed (based on the weight of the feed) being as specified in the following Table, which gives the weight of the chickens after 3, 5 and 7 weeks.

[5] = growth promotion in pigs (Example III); assay type: in vivo; details: pigs, summary of Table VII
Experimental: The sodium salt of mocimycin as obtained in Example I, was pre-mixed with wheat flour which mixture, added to the feed, was administered to pigs. The amount of the antibiotic present in the feed (based on the weight of the feed) is given hereinbelow in Table VII, in which the average relative weights of the pigs after 6 and 12 weeks, respectively are given.

[6] = test system: Staphylococcus aureus L 160a; experiment: micro liquid serial dilution test (Table II); assay type: cell-based; details: 18 h, read-out: Minimum inhibitory concentration
Experimental: (§1) The microbiological activity of the antibiotic preparation towards a number of micoorganisms has been determined by a micro liquid serial dilution test:
(§2) A stock solution of the test compounds at a concentration of 200 μg/ml in 0.05 molar phosphate buffer at a pH of 6.5 was prepared and serial 1:1 dilutions were made with a liquid medium inoculated with the test organism, using conventional glass spot-test plates. The plates were incubated 18 hours at 30° C or 37° C. The minimum inhibitory concentration (MIC) which is the smallest concentration of compound completely inhibiting the growth of the test organism is read and calculated in μg/ml.
(§3) wherein ') indicates penicillinase-producer; ") indicates recently isolated hospital strain.

[7] = test system: Staphylococcus aureus A 355; experiment: micro liquid serial dilution test (Table II); assay type: cell-based; details: A355, 18 hours at 30° C or 37° C, penicillinase-producer, read-out: Minimum inhibitory concentration
Experimental: as §1, §2, §3

[8] = test system: Pseudomonas aeruginosa 2396; experiment: micro liquid serial dilution test (Table II); assay type: cell-based; details: 18 hours at 30° C or 37° C, recently isolated hospital strain, read-out: Minimum inhibitory concentration
Experimental: as §1, §2, §3

Proteus morganii 2241 = experiment: micro liquid serial dilution test (Table II); assay type: cell-based; details: Morganella morganii, 18 hours at 30° C or 37° C, recently isolated hospital strain, read-out: Minimum inhibitory concentration
Experimental: as §1, §2, §3

[9] = test system: human-pathogenic microorganisms; experiment: in vitro activity against human-pathogenic microorganisms; assay type: cell-based; details: summary of Table II
Experimental: as §1, §2

mice = experiment: Acute toxicity in mice; assay type: in vivo
Source text: (§4) The toxicity of the antibiotic has been studied in various animals.

rats = experiment: three-month oral toxicity in rats; assay type: in vivo; details: up to 0.1% in the diet, three months
Source text: as §4

chickens = experiment: three-month oral toxicity in chickens; assay type: in vivo; details: up to 0.1% in the diet, three months
Source text: as §4

Actinobacillus equuli = experiment: activity against Actinobacillus equuli (in words); assay type: cell-based
Mycoplasma gallisepticum = experiment: in vivo activity against Mycoplasma gallisepticum
[10] = test system: Brucella melitensis A 488; experiment: microbe, parasite or virus in culture; assay type: cell-based; details: A488, 18 h, read-out: Minimum inhibitory concentration
[11] = test system: Bacillus cereus ATCC 9139; experiment: micro liquid serial dilution test (Table II); assay type: cell-based; details: ATCC9139, 18 hours at 30° C or 37° C, read-out: Minimum inhibitory concentration
Experimental: as §1, §2

[12] = test system: Streptococcus faecalis L 80; experiment: micro liquid serial dilution test (Table II); assay type: cell-based; details: Enterococcus faecalis, L80; 18 hours at 30° C or 37° C; read-out: Minimum inhibitory concentration
Experimental: as §1, §2

[13] = test system: Mycoplasma gallisepticum K 514; experiment: micro liquid serial dilution test (Table II); assay type: cell-based
Experimental: as §1, §2

Escherichia coli U 20 = experiment: micro liquid serial dilution test (Table II); assay type: cell-based; details: U20, 18 hours at 30° C or 37° C, read-out: Minimum inhibitory concentration
Experimental: as §1, §2

[14] = Stability of the solid antibiotic; assay type: physicochemical; details: for stable (solid): 100% relative humidity
[15] = dihydromocimycin 50 ppm, after 3 weeks, one symbol per animal

CC=CC=CC1OC(O)(C(CC)C(=O)NCC=CC=C(C)C(OC)C(C)C2OC(C=CC=CC=C(C)C(=O)C3=C(O)CCNC3=O)C(O)C2O)C(O)C(O)C1(C)C (centres unmarked) [dihydromocimycin]
activity relative to tylosin ([1]; administered amounts taken into account): at least 4 times | Weights ([1]; dihydromocimycin 25 ppm group, after 1 week (start of antibiotics)): 21.3 kg | Weights ([1]; dihydromocimycin 25 ppm group, just before infection (baseline)): 24.2 kg | Weights ([1]; dihydromocimycin 25 ppm, after 2 weeks): 20.2 kg | Weights ([1]; dihydromocimycin 25 ppm, after 3 weeks): 24.0 kg | Weights ([1]; dihydromocimycin 50 ppm group, after 1 week (start of antibiotics)): 21.6 kg | Weights ([1]; dihydromocimycin 50 ppm group, just before infection (baseline)): 23.4 kg | Weights ([1]; dihydromocimycin 50 ppm, after 2 weeks): 21.2 kg | Weights ([1]; dihydromocimycin 50 ppm, after 3 weeks): 23.0 kg | Faeces consistency [1, 15]: -- +- | Immunofluorescence [1, 15]: -- -- -- -- | speed of cure compared with tylosin ([1]; faeces consistency and immunofluorescence): cured markedly faster than the animals treated with tylosin | animals died during the test ([1]; group 3, dihydromocimycin 25 ppm): one | animals died during the test ([1]; group 4, dihydromocimycin 50 ppm): one | in vitro activity compared with mocimycin [2]: in many cases it shows even a better activity than mocimycin; also recorded: more active than mocimycin against many microorganisms

CC=CC=CC1OC(O)(C(CC)C(=O)NCC=CC=C(C)C(OC)C(C)C2OC(C=CC=CC=C(C)C(=O)c3c(O)cc[nH]c3=O)C(O)C2O)C(O)C(O)C1(C)C (centres unmarked) [mocimycin]
activity in vitro [3]: considerable activity in vitro | growth of the chickens [4]: an increase in growth | growth promoting effect [5]: growth promoting effect | MIC [6]: > 200 µg/mL | MIC [7]: 100 µg/mL (≈ 125 µM) | MIC [8]: > 100 µg/mL | MIC (Proteus morganii 2241): 100 µg/mL (≈ 125 µM) | activity against a number of human-pathogenic microorganisms [9]: almost no activity | lethality (mice; 1,000 mg/kg i.p., mice): does not kill mice | acute toxicity (mice; various animals): very low | undesired pharmacological effect (rats): does not result in any undesired pharmacological effect | undesired pharmacological effect (chickens): does not result in any undesired pharmacological effect | activity (Actinobacillus equuli): active | activity against Mycoplasma gallisepticum in vivo (Mycoplasma gallisepticum): no activity | MIC [10]: 1 µg/mL (≈ 1.25 µM) | MIC [11]: 0.3 µg/mL (≈ 0.376 µM) | MIC [12]: > 200 µg/mL | MIC ([13]; Mycoplasmoides gallisepticum, K514, 18 hours at 30° C or 37° C, read-out: Minimum inhibitory concentration): 0.1 µg/mL (≈ 0.125 µM) | activity against Mycoplasma gallisepticum ([13]; in vitro, summary of Table II): high activity | MIC (Escherichia coli U 20): > 100 µg/mL | no loss in activity of the solid ([14]; 25° C and 37° C, low relative humidities): at least 5 months | stable (solid) ([14]; 25° C): 3 months | stable (solid) ([14]; 37° C): 2 months
